Assay: xn = mol fraction of the nth substance listed
Conditions: Liquid, Vibrating tube method

CC(C)=O [acetone] + CCCCCCC
Conditions | mass density [kg/m3]
387.31 K, 109790 kPa, x1 = 0.611 | 737.58
387.31 K, 114860 kPa, x1 = 0.611 | 740.58
387.31 K, 119850 kPa, x1 = 0.611 | 743.43
387.31 K, 124850 kPa, x1 = 0.611 | 746.21
387.31 K, 129830 kPa, x1 = 0.611 | 748.89
387.32 K, 1320 kPa, x1 = 0.801 | 639.55
387.32 K, 1540 kPa, x1 = 0.4 | 654.4
387.32 K, 1540 kPa, x1 = 0.8992 | 654.4
387.32 K, 9840 kPa, x1 = 0.801 | 658.47
387.32 K, 14970 kPa, x1 = 0.4 | 681.93
387.32 K, 14970 kPa, x1 = 0.8992 | 681.93
387.32 K, 24870 kPa, x1 = 0.611 | 663.63
387.32 K, 29860 kPa, x1 = 0.611 | 670.27
387.32 K, 34870 kPa, x1 = 0.611 | 676.42
387.32 K, 39850 kPa, x1 = 0.801 | 702.19
387.32 K, 39920 kPa, x1 = 0.4 | 716.49
387.32 K, 39920 kPa, x1 = 0.8992 | 716.49
387.32 K, 44860 kPa, x1 = 0.611 | 687.46
387.32 K, 49850 kPa, x1 = 0.801 | 712.89
387.32 K, 49880 kPa, x1 = 0.4 | 727.19
387.32 K, 49880 kPa, x1 = 0.8992 | 727.19
387.32 K, 54850 kPa, x1 = 0.801 | 717.78
387.32 K, 59840 kPa, x1 = 0.611 | 701.71
387.32 K, 59850 kPa, x1 = 0.4 | 736.82
387.32 K, 59850 kPa, x1 = 0.801 | 722.41
387.32 K, 59850 kPa, x1 = 0.8992 | 736.82
387.32 K, 64820 kPa, x1 = 0.801 | 726.8
387.32 K, 64830 kPa, x1 = 0.4 | 741.3
387.32 K, 64830 kPa, x1 = 0.8992 | 741.3
387.32 K, 69930 kPa, x1 = 0.611 | 710.16
387.32 K, 74800 kPa, x1 = 0.4 | 749.67
387.32 K, 74800 kPa, x1 = 0.8992 | 749.67
387.32 K, 74910 kPa, x1 = 0.611 | 714.05
387.32 K, 74910 kPa, x1 = 0.801 | 735.15
387.32 K, 79790 kPa, x1 = 0.4 | 753.62
387.32 K, 79790 kPa, x1 = 0.8992 | 753.62
387.32 K, 79900 kPa, x1 = 0.611 | 717.8
387.32 K, 84760 kPa, x1 = 0.4 | 757.4
387.32 K, 84760 kPa, x1 = 0.8992 | 757.4
387.32 K, 89750 kPa, x1 = 0.4 | 761.05
387.32 K, 89750 kPa, x1 = 0.8992 | 761.05
387.32 K, 89870 kPa, x1 = 0.611 | 724.87
387.32 K, 94730 kPa, x1 = 0.4 | 764.59
387.32 K, 94730 kPa, x1 = 0.8992 | 764.59
387.32 K, 94840 kPa, x1 = 0.801 | 749.8
387.32 K, 94850 kPa, x1 = 0.611 | 728.19
387.32 K, 99700 kPa, x1 = 0.4 | 768.01
387.32 K, 99700 kPa, x1 = 0.8992 | 768.01
387.32 K, 99840 kPa, x1 = 0.611 | 731.42
387.32 K, 104670 kPa, x1 = 0.4 | 771.32
387.32 K, 104670 kPa, x1 = 0.8992 | 771.32
387.32 K, 104810 kPa, x1 = 0.611 | 734.54
387.32 K, 104810 kPa, x1 = 0.801 | 756.41
387.32 K, 109640 kPa, x1 = 0.4 | 774.53
387.32 K, 109640 kPa, x1 = 0.8992 | 774.53
387.32 K, 109780 kPa, x1 = 0.801 | 759.56
387.32 K, 114600 kPa, x1 = 0.4 | 777.64
387.32 K, 114600 kPa, x1 = 0.8992 | 777.64
387.32 K, 119580 kPa, x1 = 0.4 | 780.68
387.32 K, 119580 kPa, x1 = 0.8992 | 780.68
387.32 K, 119830 kPa, x1 = 0.801 | 765.63
387.32 K, 124530 kPa, x1 = 0.4 | 783.61
387.32 K, 124530 kPa, x1 = 0.8992 | 783.61
387.32 K, 129840 kPa, x1 = 0.4 | 786.68
387.32 K, 129840 kPa, x1 = 0.8992 | 786.68
387.33 K, 1300 kPa, x1 = 0.7024 | 628.97
387.33 K, 4820 kPa, x1 = 0.7024 | 637.48
387.33 K, 4860 kPa, x1 = 0.492 | 621.33
387.33 K, 4860 kPa, x1 = 0.801 | 648.03
387.33 K, 5010 kPa, x1 = 0.4 | 662.6
387.33 K, 5010 kPa, x1 = 0.8992 | 662.6
387.33 K, 9820 kPa, x1 = 0.7024 | 647.9
387.33 K, 9850 kPa, x1 = 0.492 | 631.47
387.33 K, 10000 kPa, x1 = 0.4 | 672.89
387.33 K, 10000 kPa, x1 = 0.8992 | 672.89
387.33 K, 14850 kPa, x1 = 0.492 | 640.29
387.33 K, 14860 kPa, x1 = 0.801 | 667.65
387.33 K, 19810 kPa, x1 = 0.7024 | 665.07
387.33 K, 19860 kPa, x1 = 0.801 | 675.81
387.33 K, 19960 kPa, x1 = 0.4 | 690.05
387.33 K, 19960 kPa, x1 = 0.8992 | 690.05
387.33 K, 24860 kPa, x1 = 0.801 | 683.23
387.33 K, 24940 kPa, x1 = 0.4 | 697.46
387.33 K, 24940 kPa, x1 = 0.8992 | 697.46
387.33 K, 29820 kPa, x1 = 0.7024 | 679.2
387.33 K, 29830 kPa, x1 = 0.801 | 690
387.33 K, 29940 kPa, x1 = 0.4 | 704.27
387.33 K, 29940 kPa, x1 = 0.8992 | 704.27
387.33 K, 34860 kPa, x1 = 0.801 | 696.35
387.33 K, 34930 kPa, x1 = 0.4 | 710.58
387.33 K, 34930 kPa, x1 = 0.8992 | 710.58

Reference: the NIST ThermoML archive (doi:10.1016/j.fluid.2010.10.028)
